The record followed here is patent US20070087985A1, “MRCK-related compositions and methods” (priority 2005, published 2007).

What all share (assay type): cell-based
In one experiment the test system is wound edge NIH-3T3 cells. As to the kind of experiment: Actin distribution (phalloidin staining). The procedure:
Actin retrograde flow is involved in nuclear movement. A. Region of 3T3-GFPTub cell used for kymograph in B. B. Kymograph showing retrograde movement of MTs and nucleus before and after 2 μM LPA addition. […] The nucleus is the broad dark band at the bottom of the kymograph and begins moving rearward in concert with MTs. C, D. Wound edge starved NIH-3T3 cells were microinjected with R-actin and time lapse images of actin speckles were acquired before (C) or after (D) addition of 2 μM LPA. Kymographs of a region of the lamella are shown (separate cells are shown in C and D). Actin speckles (arrowheads) remain stationary in the absence of LPA (C) but move away from the leading edge upon LPA addition (D). Note that the nucleus remains stationary in the absence of LPA (C) but moves rearward at the same rate as actin speckles after LPA addition (D). E. Starved wounded monolayers of NIH-3T3 cells were either left untreated or treated with 2 μM LPA with or without BB or CD as indicated. After 2 hr, coverslips were fixed, stained and the extent of MTOC reorientation determined. The level of random “reorientation” is ˜33%. F. The average positions of the MTOC and nucleus from the cells treated as in E were determined and plotted. G. Actin distribution (phallodin staining) in wound edge NIH-3T3 cells treated as indicated. Bar, G: 10 μm.
Cdc42 and MRCK activate nuclear movement to reorient the MTOC. A. Starved wound edge NIH-3T3 cells were injected with L61Cdc42, N17Cdc42 or Pak-CRIB domain proteins and then treated with 2 μM LPA for 2 hr. Cells were then fixed, stained and the positions of the nucleus and MTOC were determined. […] After expression (2 hr) cells were treated with 2 μM LPA for 2 hr, fixed, stained and the extent of MTOC reorientation determined. […] After expression (3 hr), cells were fixed, stained and the extent of MTOC reorientation was determined. D, E. Average nucleus and MTOC positions of cells from B and C were determined and plotted. […] Cells were fixed and stained and the percentage of expressing cells remaining at the wound edge determined. […]

The subject of experiment [1] is starved wound edge NIH-3T3 cells. As to the kind of experiment: MTOC reorientation in wounded starved monolayers (fixed, stained cells). Conditions: for effect on MTOC reorientation induced by LPA: pre-treatment with 0.5 μM CD or 50 μM BB; for MTOC reorientation in starved cells without LPA: microinjected protein or expressed DNA, no other treatment. The procedure:
(§1) NIH-3T3 cells were cultured in DMEM with 10% calf serum, serum starved for 2 days and wounded as previous described (9, 21).
(§2) Plasmid DNA was purified using Plasmid Midi Kit (Qiagen, Valencia, Calif.) and was microinjected into nuclei as described (38). Expression was detectable within 1-2 hr. Proteins were microinjected as described (9, 39). DIC mAb 74.1 (from K. Pfister, U. of Virginia), was microinjected at 10 mg/ml and Cdc42, Rac and Rho GTPases were microinjected at 1 mg/ml. For double microinjections, 100 μg/ml DNA (MRCK-WT or MRCK-CPC) was injected into the nucleus with 2 mg/ml fluorescein-ovalbumin. After 30 min, labelled cells were injected with DIC mAb, L61Cdc42 or human IgG as a control.
(§3) Phase contrast and fluorescence images of cells stained for pericentrin or γ-tubulin, β-catenin, DNA, expression tag, MTs. (Tyr tubulin) or injection marker were acquired as described (38, 39). MTOC reorientation was determined as previously described (39). For analysis of nucleus and MTOC position, images were pseudo-colored, aligned with the wound parallel to the X axis and then combined using Metamorph software. The cell perimeter was drawn over the cell-cell contacts (β-catenin, expression tags or injection markers) and the wound edge (Tyr-tubulin or injection markers) and the cell centroid was calculated using Metamorph software. Similarly, the nuclear perimeter was drawn and the centroid of the nucleus calculated. A vector representing the distances from the centroid of the nucleus and the MTOC (γ-tubulin or pericentrin staining and MT focus) to the cell centroid was drawn and resolved into X and Y coordinates (parallel and perpendicular to the leading edge, respectively). To allow comparison between cells, measurements were normalized to cell size. […] At least 30 cells from 3 independent experiments were analysed for each condition and error bars in plots are SEM.

For experiment [2] the test system is unchanged. As to the kind of experiment: Determination of nucleus and MTOC position relative to the cell centroid. The settings on record: for effect on rearward nuclear movement induced by LPA / effect on the position of the MTOC: pre-treatment with 0.5 μM CD or 50 μM BB; for effect on rearward nuclear movement induced by LPA / effect on the position of the MTOC / effect on LPA-induced rearward nuclear movement: 2 μM LPA, 2 hr; for rearward nuclear movement in starved cells without LPA: microinjected protein or expressed DNA. The procedure:
as §1, §2, §3

The subject of a further experiment is pSer19 MLC. Put plainly: Phospho-Ser19 MLC quantification. The settings on record: starved wound edge cells, injected, fixed 2.5 hr later. The procedure: Total cell extracts prepared in SDS sample buffer were analyzed by western blotting as described (38). For quantification of pSer19-MLC immunofluorescence, average cellular fluorescence intensity was determined with Metamorph software after subtracting background fluorescence (determined for an adjacent cell-free area). Data is from at least two independent experiments and error bars in plots are SEM.

For experiment [3], the system named is starved wound edge NIH-3T3 cells. Put plainly: Migration of expressing wound edge cells after serum stimulation. The settings on record: DNA microinjection, serum for 12 h. The procedure: Cdc42 and MRCK activate nuclear movement to reorient the MTOC. A. Starved wound edge NIH-3T3 cells were injected with L61Cdc42, N17Cdc42 or Pak-CRIB domain proteins and then treated with 2 μM LPA for 2 hr. Cells were then fixed, stained and the positions of the nucleus and MTOC were determined. MTOC reorientation is indicated as YES (>60%); NO (<40%). B. Starved wound edge NIH-3T3 cells were injected with DNA encoding myc-hPAK1 (hPAK1(83-149)), HA-MRCK-TM or Flag-MRCK-CPC. After expression (2 hr) cells were treated with 2 μM LPA for 2 hr, fixed, stained and the extent of MTOC reorientation determined. C. Serum starved wound edge NIH-3T3 cells were injected with DNA encoding […] HA-L61Cdc42, HA-L61Cdc42 plus flag-MRCK-CPC or flag-MRCK-WT (MRCK-WT). After expression (3 hr), cells were fixed, stained and the extent of MTOC reorientation was determined. D, E. Average nucleus and MTOC positions of cells from B and C were determined and plotted. F. Representative images of cells microinjected with the indicated constructs and treated with LPA as indicated before fixing and staining. Arrows indicate cells with expressed protein (green), pericentrin and β-catenin (red) and DNA (blue). G. Actin (phalloidin staining) in a cell injected with MRCK-TM (arrow) and treated with LPA. […] Cells were fixed and stained and the percentage of expressing cells remaining at the wound edge determined. […]

The mark [4] stands for this setting: 100 nM nocodazole with LPA for 2h.
Where [5] appears, read: microinjected protein, antibody or expressed DNA construct, 2 μM LPA, 2 hr.
[6] abbreviates: microinjected protein, antibody or expressed DNA construct.
The mark [7] stands for this setting: co-expression with HA-L61Cdc42, 3 hr.

As for `Cc1ccc2c(c1)C(=O)C1(O)CCN(c3ccccc3)C1=N2` (stereo not drawn) [BB, blebbistatin, reference compound], in the experiment on wound edge NIH-3T3 cells (CD or BB with 2 μM LPA), the “effect on LPA-induced changes in the actin cytoskeleton” value (“effect on LPA-induced changes” below) is given as “blocked”. Also, the “effect on MTOC reorientation induced by LPA” value in experiment [1] (2 μM LPA, 2 hr) is listed as “blocked”. Further, in experiment [2], the “effect on rearward nuclear movement induced by LPA” value was “blocked” and the “effect on the position of the MTOC” value was “without affecting”.
As to `C=C1[C@@H](C)[C@H]2[C@H](Cc3ccccc3)NC(=O)[C@]23[C@H](OC(C)=O)/C=C/[C@@](C)(O)C(=O)[C@@H](C)C/C=C/[C@H]3[C@@H]1O` [CD, cytochalasin D, reference compound], the “effect on LPA-induced changes” value in the experiment with wound edge NIH-3T3 cells (CD or BB with 2 μM LPA) is reported as “blocked”. Further, the “effect on MTOC reorientation” value in experiment [1] (lower concentrations of CD (below 0.5 μM)) is recorded as “had no effect”. In experiment [1] (2 μM LPA, 2 hr), the “effect on MTOC reorientation induced by LPA” value is listed as “blocked”. In experiment [2], the “effect on rearward nuclear movement induced by LPA” value is “blocked” and the “effect on the position of the MTOC” value was “without affecting”.
Consider `COC(=O)Nc1nc2ccc(C(=O)c3cccs3)cc2[nH]1` [nocodazole, reference compound], for which the “effect on LPA-induced MTOC reorientation” value in experiment [1] (setting [4]) was “blocked MTOC reorientation”. In experiment [2] (100 nM nocodazole washed out, medium with LPA for another 2h), the “MTOC position upon nocodazole wash out” value is “the MTOC returned to the cell center”. Further, in experiment [2] (setting [4]), the “effect on MTOC centration” value is given as “interfering with MTOC centration” and the “effect on nuclear movement” value is “not with nuclear movement”.
Take “L61Cdc42: constitutively active L61Cdc42 protein (microinjected) or HA-L61Cdc42 DNA”: the “MTOC reorientation in starved cells without LPA” value in experiment [1] is on record as “resulted in MTOC reorientation”. Also, the “pSer19 MLC immunofluorescence compared to noninjected cells” value with pSer19 MLC was “substantially increased”. Also, the “rearward nuclear movement in starved cells without LPA” value in experiment [2] (no other treatment) is “induced rearward nuclear movement”.
As for “MRCK-TM: dominant negative full length MRCKa with K106A, H1579A and H1582A mutations”, in the experiment on wound edge NIH-3T3 cells (cell injected with DNA construct, treated with LPA), the “effect on LPA-induced changes” value was “did not have a major effect”. In addition, the “effect on cell migration (expressing cells remaining at the wound edge)” value in experiment [3] was “migration was inhibited”. The “effect on LPA-induced MTOC reorientation” value in experiment [1] (setting [5]) is “blocked MTOC reorientation”. The “effect on LPA-induced rearward nuclear movement” value in experiment [2] (setting [6]) is recorded as “blocking the rearward movement of the nucleus”.
Turning to “N17Cdc42: dominant-negative N17Cdc42 protein”, the “effect on LPA-induced rearward nuclear movement” value in experiment [2] (setting [6]) was “blocked”.
On to “wild type MRCK: wild type full length Rat MRCKa”, for which the “effect on cell migration (expressing cells remaining at the wound edge)” value in experiment [3] is given as “no effect on cell migration”. Also, in experiment [1], the “MTOC reorientation in starved cells without LPA” value is “induced”. In addition, the “pSer19 MLC immunofluorescence compared to noninjected cells” value in the experiment with pSer19 MLC is reported as “increased”. The “position of the MTOC in starved cells without LPA” value in experiment [2] (expressed DNA, no other treatment) is “maintaining the MTOC at the cell centroid”. Moreover, the “rearward nuclear movement in starved cells without LPA” value in experiment [2] (no other treatment) is “induced”.

B1: MRCK-CPC: dominant negative truncated MRCKa, aa930-1492, lacks kinase domain and GTPase binding domain (protein, UniProt O54874 930-1492, looked up, fragment)
chain: QLIKDTEELRSEKGVEHRDSQHSFLAFLNTPTDALDQFERSPSCTPAGKGRRIADSAPLPVHTPTLRKKGCPASAGFPPKRKTHQFFVKSFTAPTKCHQCTSLMVGLIRQGCSCEVCGFSCHITCVNKAPTTCPVPPEQTKGPLGIDPQKGVGTAYEGHVRIPKPAGVKKGWQRALAVVCDFKLFLYDIAEGKASQPSSVISQVIDMRDEEFSVSSVLASDVIHASRKDIPCIFRVTASQLSAPSDKCSILMLADSETERSKWVGVLSELHKVLKKNKFRDRSVYVPKEAYDSTLPLIKTTQAAAIIDHERVALGNEEGLFVVHVTKDEIIRVGDNKKIHQIELIPSDQLVAVISGRNRHVRLFPMSALDGRETDFYKLAETKGCQTIAAGKVRHGALSCLCVAMKRQVLCYELFQSKTRHRKFKEIQVPCNVQWMAIFSEHLCVGFQSGFLRYPLNGEGSPCNMLHSNDHTLAFITHQPMDAICAVEISNKEYLLCFSSIGIYTDCQGRRSRQQELMWPANPSSCCYNAPYLSIYSENAVDIFDVNSMEWIQTLPLKKVRPL
modifications: Flag tag
On to B1, for which, in experiment [1] (setting [7]), the “effect on MTOC reorientation induced by L61Cdc42” value is listed as “inhibited”. For the same molecule, in experiment [1] (setting [5]), the “effect on LPA-induced MTOC reorientation” value was “blocked MTOC reorientation”. Also, in the experiment on pSer19 MLC, the “pSer19 MLC immunofluorescence compared to noninjected cells” value is reported as “no effect”. The “effect on nuclear movement induced by L61Cdc42” value in experiment [2] (setting [7]) was “inhibited”. In addition, the “effect on LPA-induced rearward nuclear movement” value in experiment [2] (setting [6]) was “blocking the rearward movement of the nucleus”.

B2: Par6: full length mouse Par-6 in pFLAG CMV2 (protein, UniProt Q9Z101 1-346, looked up)
chain: MARPQRTPARSPDSIVEVKSKFDAEFRRFALPRTSVRGFQEFSRLLCVVHQIPGLDVLLGYTDAHGDLLPLTNDDSLHRALASGPPPLRLLVQKRAEGDSSGLAFASNSLQRRKKGLLLRPVAPLRTRPPLLISLPQDFRQVSSVIDVDLLPETHRRVRLHKHGSDRPLGFYIRDGMSVRVAPQGLERVPGIFISRLVRGGLAESTGLLAVSDEILEVNGIEVAGKTLDQVTDMMVANSHNLIVTVKPANQRNNVVRGASGRLTGPSSVGPGPTDPDSDDDSSDLVIENRHPPCSNGLSQGPLCWDLQPGCLLPGAGSSLPSLDSREQANSGWGNGMRGDVSGFSL
modifications: full-length Flag tag
notes: full length mouse Par-6 in pFLAG CMV2
In the case of B2, the “effect on LPA-induced MTOC reorientation” value in experiment [1] (setting [5]) is on record as “blocked”. Moreover, the “effect on LPA-induced rearward nuclear movement” value in experiment [2] (setting [6]) was “unaffected”. Also, the “position of the MTOC relative to the cell centroid” value in experiment [2] (microinjected protein, antibody or expressed DNA construct, LPA-treated (L61Cdc42 without LPA)) is “displacement of the MTOC from its position at the centroid”.

B3: hpak1(83-149): N-terminal autoregulatory domain of Pak1, which inhibits Pak1 activity (protein, UniProt Q13153 83-149, looked up, fragment)
chain: HTIHVGFDAVTGEFTGMPEQWARLLQTSNITKSEQKKNPQAVLDVLEFYNSKKTSNSQKYMSFTDKS
modifications: myc tag
On to B3, for which the “effect on LPA-induced MTOC reorientation” value in experiment [1] (setting [5]) is given as “still reoriented their MTOC”. Further, in experiment [2] (setting [6]), the “effect on LPA-induced rearward nuclear movement” value is “moved their nuclei rearward”.
